In patent US20220347096A1, “LIPOSOMAL CANNABINOIDS AND USES THEREOF” (YISSUM RESEARCH DEVELOPMENT COMPANY OF THE HEBREW …, priority 2019, published 2022):

Test: Plasma CBD profile and PK after IV administration
Format: in vivo
Settings: mice; for Plasma CBD, Mean ± SD: 12 mg/kg
Method: CBD was extracted from plasma samples that were spiked with cannabigerol (CBG, 1 mg/ml in methanol, Sigma, Cat. C-141-1) used as internal standard (IS) followed by dilution of the plasma five-fold in acetonitrile. After vigorous vortex it was centrifuged, and the upper phase was analyzed. Final IS concentration in the samples was 100 ng/ml.
Plasma extracts were analyzed by LCMS method. Specifically, LC-MS/MS analyses were conducted on a Sciex (Framingham, Mass., USA) Triple Quad™ 5500 mass spectrometer coupled with a Shimadzu (Kyoto, Japan) UHPLC System. The concentrations were calculated based on a calibration curve of CBD in plasma at a range of 1-1,000 ng/ml having 100 ng/ml of IS.
IV formulation: The formulation used for IV administration was 10 mg/g CBD formulation solubilized in Cremophor:Ethanol 50:50 solution. This formulation was diluted 10-fold with saline prior to injection to result in 1 mg/ml post dilution concentration. The diluted formulation was used within 1 h after preparation. […]
At the time-points detailed below, 3 mice were euthanized with CO2 and terminal blood was immediately collected from the retro-orbital sinus in labeled 0.5 ml K3EDTA blood collection tubes (Mini Collect, Greiner-bio-one, Austria). The blood was centrifuged at 2000×g for 10 minutes before plasma was extracted, collected in labeled tubes and frozen at −20° C. immediately after collection. The samples were then stored at −80° C. pending analysis. […]

[1] = female, BALB/C, mouse, in vivo, IV 12 mg/kg

`C=C(C)[C@@H]1CCC(C)=C[C@H]1c1c(O)cc(CCCCC)cc1O` [CBD, 2-[(1R,6R)-6-Isopropenyl-3-methylcyclohex-2-en-1-yl]-5-pentylbenzene-1,3-diol] showed an AUC(0-inf) [1] of 5020 ng·h/mL, a C0 [1] of 9460 ng/mL and a Cmax [1] of 8860 ng/mL. It also gave a Tmax [1] of 4.98 min, a clearance [1] of 39.8 mL/min/kg and a half-life [1] of 101 min. For the same compound, the concentration at 5 min (female, BALB/C, mouse, in vivo, IV 12 mg/kg in Cremophor:Ethanol diluted with saline, 5 min, read-out: Plasma CBD, Mean ± SD) was 8860 ng/mL, the concentration at 1 h (female, BALB/C, mouse, in vivo, IV 12 mg/kg, 1 h, read-out: Plasma CBD, Mean ± SD) was 177 ± 40 ng/mL and the concentration at 4 h (female, BALB/C, mouse, in vivo, IV 12 mg/kg, 4 h, read-out: Plasma CBD, Mean ± SD) was 35 ± 11 ng/mL. It also gave a concentration at 8 h (female, BALB/C, mouse, in vivo, IV 12 mg/kg, 8 h, read-out: Plasma CBD, Mean ± SD) of 9.5 ng/mL, an AUC (female, BALB/C, mouse, in vivo, IV 12 mg/kg, read-out: AUC0—Tlast) of 5000 ng·h/mL and a Vd (female, BALB/C, mouse, in vivo, IV 12 mg/kg, read-out: Vz) of 5.79 L/kg. The “AUC0—Tlast/Dose” value (IV 12 mg/kg) was 417 (hr*ng/mL)/(mg/kg), the Cmax/Dose (IV 12 mg/kg) was 738 (ng/mL)/(mg/kg) and the “Plasma CBD, Mean ± SD” value (IV 12 mg/kg in Cremophor:Ethanol diluted with saline, 5 min) was 8,856 ± 1,451 ng/ml. The “Mean plasma CBD concentration normalized to dose (±SD)” value (IV 12 mg/kg, 5 min) was 757 ± 124 ng/mL/mg/kg, the “Mean plasma CBD concentration normalized to dose (±SD)” value (IV 12 mg/kg, 1 h) was 15 ± 3.46 ng/mL/mg/kg and the “Mean plasma CBD concentration normalized to dose (±SD)” value (IV 12 mg/kg, 4 h) was 2.99 ± 0.90 ng/mL/mg/kg. For the same compound, the “Mean plasma CBD concentration normalized to dose (±SD)” value (IV 12 mg/kg, 8 h) was 0.81 ± 0.31 ng/mL/mg/kg, the “Plasma CBD, Mean ± SD” value (IV 12 mg/kg, 8 h) was 9.50 ± 3.67 ng/mL and the “Mean plasma CBD concentration normalized to dose (±SD)” value (IV 12 mg/kg, 24 h) was “BLOD”. For the same compound, the “Plasma CBD, Mean ± SD” value (IV 12 mg/kg, 24 h) was “below the limit of detection and BLOD”, the “Mean plasma CBD concentration normalized to dose (±SD)” value (IV 12 mg/kg, 48 h) was “BLOD” and the “Plasma CBD, Mean ± SD” value (IV 12 mg/kg, 48 h) was “below the limit of detection and BLOD”.
